Measurements: patent publication US12686704B2, “Procoagulant peptides and use thereof” (RAMBAM MED-TECH LTD., priority 2021, dated 2026)

Tests used:
[1] = tested on: Hemophilic mice (VIII-KO mice); assay: Mouse-tail bleeding time model in hemophilic mice; assay type: in vivo; settings: for bleeding time: 150, 225, 300, 375 μg/kg sub-cutis at the flank or topically on the tail, dose dependent, vs PBS control
Protocol: FIGS. 3A-3D include vertical bar graphs showing that modified heparanase procoagulant peptides of the invention decrease bleeding in hemophilic mice. Hemophilic mice (VIII-KO mice; C57BL/6 background, strain name B6;129S4-F8tm1Kaz/J) were studied. (3A) Peptides 16 or 16AC were injected subcutaneously at the flank in doses 150, 225, 300, 375 μg/kg. A mouse-tail bleeding time model was performed. The peptides were dissolved in phosphate-buffered saline (PBS). Control (0) group was injected with the vehicle phosphate buffered saline (PBS). (3D) is identical to (3A) with the exception that peptide 16 C […] and peptide 16A […] were also administered in the disclosed doses. In a similar study, the peptides were topically applied on the tail immediately following the incision of the tail at a rate of a drop every 5 seconds (3B). […] Mann-Whitney U test was used. Results represent mean±SD. *p<0.05.
Hemophilic mice (VIII-KO mice; C57BL/6 background, strain name B6;129S4-F8tm1Kaz/J) were studied. Peptides 16 or 16AC were injected sub-cutis at the flank in doses 150, 225, 300, 375 μg/kg. A mouse-tail bleeding time model was performed. The peptides were dissolved in phosphate-buffered saline (PBS). Control (0) group was injected with the vehicle phosphate buffered saline (PBS) (FIGS. 3A and 3D). In a similar study, the peptides were topically applied on the tail immediately following the incision of the tail at a rate of a drop every 5 seconds (FIG. 3B).

[2] = tested on: ICR mice; assay: Immunostaining of wound skin sections of ICR mice; assay type: in vivo, mouse; settings: subcutaneous opposite to the wound every other day for a week; for expression of heparanase in micro-vessels: FIG. 10A; for expression of TF in micro-vessels: FIG. 10B; for expression of TFPI-1 in micro-vessels: FIG. 10C; for expression of TFPI-2 in micro-vessels: FIG. 10D
Protocol: FIGS. 10A-10D include micrographs of immunohistochemistry assays showing that heparanase procoagulant peptides increase the level of heparanase, TF, TFPI and TFPI-2. Full thickness incision was made in the back skin of ICR mice. Each group included 5 mice. From the day of surgery either peptide 16 or 16AC was injected subcutaneous opposite to the wound, every other day for a week. At the end of the experiment the mice were sacrificed and the wound skin section was analyzed by immunostaining. […] Images were visualized through ×50 magnitude, with 0.82 MDC objective lens, captured with a Nikon E995 digital camera (Nikon, Tokyo, Japan), and processed with Adobe Photoshop software (Adobe Systems, San Jose, CA, USA).
Briefly, full thickness incision was made in the back skin of ICR mice. Each group included 5 mice. From the day of surgery either peptide 16 or 16AC was injected subcutaneous opposite to the wound, every other day for a week. At the end of the experiment the mice were sacrificed and the wound skin section was analyzed by immunostaining.

[3] = tested on: ICR mice; assay: Wound healing after full thickness skin incision in ICR mice; assay type: in vivo, mouse; settings: for number of capillaries (vessels) in wound skin tissue: H&E staining at end of experiment, FIGS. 4D-4E; for wound healing (wound size): S.C. opposite to the wound on alternate days for one week, FIGS. 4A-4B
Protocol: FIGS. 4A-4E include images, micrographs, and graphs showing that that modified heparanase procoagulant peptides of the invention enhance wound healing. (4A) Full thickness incision of 10 mm was made in the back skin of ICR (normal, no genetic background) mice. On alternate days, for one week after surgery, peptide 16 or peptide 16AC was injected subcutaneously (S.C.) opposite to the wound at the indicated dose. Control group was injected the vehicle (PBS). […] Similar results were observed when the peptides were topically applied as a cream preparation (4C). n—number of mice. Mann-Whitney U test was used. Results represent mean±SD, **p<0.001, ***p<0.0001. (4D) At the end of the experiment the mice were sacrificed and the skin tissue from the wound site excised, and histologically analyzed using hematoxylin and eosin (H&E) staining. Representative images are shown. […] The number of capillaries presented reflects the median and range of five different fields. Mann-Whitney U test was used. Results represent mean±SD, *p<0.01, **p<0.001.
Full thickness incision of 10 mm was made in the back skin of ICR (normal, no genetic background) mice. On alternate days, for one week after surgery, peptide 16 was injected sub-cutaneous (S.C.) opposite to the wound at the indicated dose. Control group was injected the vehicle (PBS). […] Similar results were obtained when the peptides were applied topically in a cream preparation (FIG. 4C). At the end of the experiment the mice were sacrificed and the skin tissue from the wound site was analyzed using H&E staining.

[4] = biological target: lipidated TF, factor VIIa, factor X (Homo sapiens, UniProt P13726); assay: Factor X activation assay of purified proteins (chromogenic substrate); assay type: biochemical; settings: peptides at 5 μg/ml and 10 μg/ml; compared to control; FIG. 1A
Sequence of lipidated TF, factor VIIa, factor X (P13726 33-295): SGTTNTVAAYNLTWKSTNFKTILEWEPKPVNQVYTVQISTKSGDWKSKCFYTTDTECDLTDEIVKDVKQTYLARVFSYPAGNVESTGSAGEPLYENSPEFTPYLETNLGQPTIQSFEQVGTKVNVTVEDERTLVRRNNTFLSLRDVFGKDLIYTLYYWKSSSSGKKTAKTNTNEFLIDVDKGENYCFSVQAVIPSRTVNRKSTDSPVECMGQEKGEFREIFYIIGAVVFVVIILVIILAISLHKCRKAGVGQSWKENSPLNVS
Sequence of lipidated TF, factor VIIa, factor X (P08709 61-212 partner limits assumed): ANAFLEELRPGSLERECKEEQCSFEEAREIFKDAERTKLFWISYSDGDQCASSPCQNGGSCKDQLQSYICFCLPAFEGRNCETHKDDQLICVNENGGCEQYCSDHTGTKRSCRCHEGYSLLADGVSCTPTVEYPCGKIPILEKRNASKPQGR
Sequence of lipidated TF, factor VIIa, factor X (P08709 213-466 partner limits assumed): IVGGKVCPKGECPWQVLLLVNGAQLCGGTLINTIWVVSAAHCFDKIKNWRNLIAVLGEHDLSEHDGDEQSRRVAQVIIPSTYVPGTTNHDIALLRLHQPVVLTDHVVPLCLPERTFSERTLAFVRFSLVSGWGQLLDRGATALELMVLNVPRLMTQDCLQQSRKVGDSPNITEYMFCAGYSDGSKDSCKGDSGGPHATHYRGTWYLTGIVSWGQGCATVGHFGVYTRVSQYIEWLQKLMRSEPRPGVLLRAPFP
Protocol: FIGS. 1A-1C include vertical bar graphs and thromboelastography (TEG) curves, showing that peptide 16 and peptide 16AC increase coagulation. Peptide 16 and 16AC were studied in an assay of purified proteins that included lipidated TF (4 nM), factor VIIa (40 nM), factor X (1.4 μM) and assay buffer. Factor X activated form (Xa) level was studied using a chromogenic substrate (1 mM). […] Bovine factor Xa diluted in the assay buffer was used to generate a standard curve. Without addition of TF (two right columns), no factor Xa was generated. […] (1B) A citrated pooled normal human blood sample (n=3) was left for 4 hours at room temperature in order to expose TF in bloods cells. Following this period, the peptides 16 and 16AC were added (5 μg/ml) along with calcium. […] Representative TEG curves are shown. (1C) The study presented in FIG. 1B was repeated 3 times with different pooled plasma. […] Peptide 16 (non-modified); peptide 16 comprising a C-terminal amid group (16A); peptide 16 comprising an N-terminal acetyl group (16C); and peptide 16 comprising a C-terminal amid group and an N-terminal acetyl group (16AC). In 1B: for control—SP min=11.2; R min=12.8; K min=3.8, Angle deg=52.0; and MA mm=47.9, for Peptide 16—SP min=5.2; R min=6.4; K min=2.8, Angle deg=63.3; and MA mm=50.4, and for Peptide 16AC—SP min=4.7; R min=5.6; K min=2.5, Angle deg=63.1; and MA mm=53.8.
Peptides 16, 16C, 16A and 16AC were studied in an assay of purified proteins that included lipidated TF (0.004 μM), factor VIIa (0.04 μM), factor X (1.4 μM) and assay buffer. Factor X activated form (Xa) level was studied using a chromogenic substrate (1 mM). […] Bovine factor Xa diluted in the assay buffer was used to generate a standard curve. Without addition of TF (two right columns), no factor Xa was generated.

Row | Substance | bleeding time [1] | bleeding time reduction, comparison between peptides ([1]; subcutaneous 150-375 μg/kg, FIG. 3D) | expression of heparanase in micro-vessels [2] | expression of TF in micro-vessels [2] | expression of TFPI-1 in micro-vessels [2] | expression of TFPI-2 in micro-vessels [2] | number of capillaries (vessels) in wound skin tissue [3] | number of capillaries (vessels) in wound skin tissue ([3]; listed as peptide 16AC) | wound healing (wound size) [3] | activation of factor X (factor Xa level) [4]
1 | acetyl-GSKRRKLRVYLHCT-amid (Ac-GSKRRKLRVYLHCT-NH2) [Peptide 16AC, peptide 16 comprising a C-terminal amid group and an N-terminal acetyl group] | significant decrease in bleeding time | improved bleeding reduction | significant increase in the expression | significant increase in the expression | significant increase in the expression | significant increase in the expression | significantly better effect | significant increase of capillaries | significantly better effect on wound size | significantly increased activation of factor X compared to control
2 | GSKRRKLRVYLHCT [Peptide 16, peptide comprising the procoagulant domain of heparanase, non-modified] | significant decrease in bleeding time | – | significant increase in the expression | significant increase in the expression | significant increase in the expression | significant increase in the expression | significant increase of capillaries | – | significantly enhanced wound healing | significantly increased activation of factor X compared to control
